Data published in patent publication US20120196854A1, “PHARMACEUTICAL COMPOSITION COMPRISING AROMATIC HETEROCYCLIC COMPOUND” (Kyowa Hakko Kirin Co., Ltd., priority 2009, published 2012).

Target: T1, human H-PGDS (Homo sapiens, UniProt O60760)
T1 construct: purchased Cayman Chemical 10006593
Experiment: H-PGDS inhibitory activity (Prostaglandin D Synthase Inhibitor Screening Assay Kit)
Type: biochemical
Conditions: at a concentration of 1 μmol/L; read-out: H-PGDS inhibitory rate
Procedure: The H-PGDS inhibitory activity of Compound (I) was calculated according to the following protocol attached to Prostaglandin D Synthase Inhibitor Screening Assay Kit (Cat. No. 10006595, Cayman Chemical, Ann Arbor, Mich., USA).
(§1) First, to a 96-well round-bottom plate (Cat. No. 3882-096, Asahi Techno Glass, Chiba), 60 μL/well of an enzyme assay buffer (0.1 mol/L Tris-HCl, pH 8.0), 10 μL/well of a human H-PGDS [Cat. No. 10006593 (human), Cayman Chemical, Ann Arbor, Mich., USA] at a final concentration of 0.125 μg/mL, 10 μL/well of reduced glutathione at a final concentration of 1 mmol/L, and 10 μL/well of Compound (I) diluted with the enzyme assay buffer were added and lightly mixed. The plate was allowed to stand at room temperature for 10 minutes, and then 10 μL/well of prostaglandin H2(PGH2) (Cat. No. 17020, Cayman Chemical) at a final concentration of 50 μmol/L was added thereto to start enzyme reaction. The reaction was allowed to proceed with mixing by a plate mixer for 1 minute. After the enzyme reaction, 10 μL/well of a 4 mg/mL FeCl2-HCl solution prepared by dissolving FeCl2 in 1 mol/L hydrochloric acid was added to stop the reaction and reduce PGH2 simultaneously. The enzyme reaction solution (100 μL/well) was transferred to a 96-well UV-Star half area plate (Cat. No. 675801, Greiner, Frickenhausen, Germany), and measured for absorbance at 232 nm using a microplate reader Power Wave (BioTek Instrument Inc., Winooski, Vt., USA).
The H-PGDS inhibitory activity (inhibitory rate) of Compound (I) was calculated by the following formula.
The H-PGDS inhibitory activity of Compound 133 was calculated according to the following protocol attached to Prostaglandin D Synthase Inhibitor Screening Assay Kit (Cat. No. 10006595, Cayman Chemical, Ann Arbor, Mich., USA).
as §1, with “133” for “(I)”
The H-PGDS inhibitory activity (inhibitory rate) of Compound 133 was calculated according to the method in Test Example 1.

T1 sequence (O60760 whole entry): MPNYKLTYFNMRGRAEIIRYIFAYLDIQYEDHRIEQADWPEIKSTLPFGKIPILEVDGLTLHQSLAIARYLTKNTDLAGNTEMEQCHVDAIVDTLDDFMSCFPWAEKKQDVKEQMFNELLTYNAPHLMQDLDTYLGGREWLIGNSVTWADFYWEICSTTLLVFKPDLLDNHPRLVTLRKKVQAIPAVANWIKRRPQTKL

Structure (SMILES) | inhibition at 1 µM [%]
O=C(O)c1cc(-c2ccc(NS(=O)(=O)c3ccccc3)cc2)nc2ccc3nc(-c4ccccc4)oc3c12 [Compound 53, 7-(4-benzenesulfonylaminophenyl)-2-phenyloxazolo[5,4-f]-quinoline-9-carboxylic acid] | ≥ 80
O=C(NS(=O)(=O)c1ccccc1)c1cccc(-c2cc(C(=O)O)c3c(ccc4nn(-c5ccccc5)nc43)n2)c1 [Compound 26, 7-(3-benzenesulfonylaminocarbonylphenyl)-2-phenyl-2H[1,2,3]triazolo[4,5-f]quinoline-9-carboxylic acid] | ≥ 80
CS(=O)(=O)NC(=O)c1ccc(-c2cc(C(=O)O)c3c(ccc4nn(-c5ccccc5)nc43)n2)cc1 [Compound 13, 7-(4-methanesulfonylaminocarbonylphenyl)-2-phenyl-2H[1,2,3]triazolo[4,5-f]quinoline-9-carboxylic acid] | ≥ 80
O=C(O)c1cc(-c2ccc(NS(=O)(=O)c3ccccc3)cc2)nc2ccc3nn(-c4ccccc4)nc3c12 [Compound 15, 7-(4-benzenesulfonylaminophenyl)-2-phenyl-2H[1,2,3]triazolo[4,5-f]quinoline-9-carboxylic acid] | ≥ 80
Cc1cccc(-n2nc3ccc4nc(-c5ccco5)cc(C(=O)O)c4c3n2)c1 [Compound 102, 7-(furan-2-yl)-2-(3-methylphenyl)-2H-[1,2,3]triazolo[4,5-f]quinoline-9-carboxylic acid] | ≥ 80
O=C(NS(=O)(=O)c1ccccc1)c1ccc(-c2cc(C(=O)O)c3c(ccc4nn(-c5ccccc5)nc43)n2)cc1 [Compound 28, 7-(4-benzenesulfonylaminocarbonylphenyl)-2-phenyl-2H[1,2,3]triazolo[4,5-f]quinoline-9-carboxylic acid] | ≥ 80

Further lines, results first:

inhibition at 1 µM [%] | Structure (SMILES)
≥ 80 | O=C(O)c1cc(-c2cc(C(=O)O)c3c(ccc4nn(-c5cccc(F)c5)nc43)n2)c[nH]1 [Compound 76, 7-(5-carboxy-1H-pyrrol-3-yl)-2-(3-fluorophenyl)-2H-[1,2,3]-triazolo[4,5-f]quinoline-9-carboxylic acid]
≥ 80 | CS(=O)(=O)Nc1ccc(-c2cc(C(=O)O)c3c(ccc4nn(-c5ccccc5)nc43)n2)cc1 [Compound 6, 7-(4-methanesulfonylaminophenyl)-2-phenyl-2H[1,2,3]triazolo[4,5-f]quinoline-9-carboxylic acid]
≥ 80 | CS(=O)(=O)NC(=O)c1cccc(-c2cc(C(=O)O)c3c(ccc4nn(-c5ccccc5)nc43)n2)c1 [Compound 17, 7-(3-methanesulfonylaminocarbonylphenyl)-2-phenyl-2H[1,2,3]triazolo[4,5-f]quinoline-9-carboxylic acid]
≥ 80 | O=C(O)c1cc(-c2cnn(Cc3ccccc3)c2)nc2ccc3nn(-c4cccc(F)c4)nc3c12 [Compound 116, 7-(1-benzyl-1H-pyrazol-4-yl)-2-(3-fluorophenyl)-2H-[1,2,3]-triazolo[4,5-f]quinoline-9-carboxylic acid]

System: PGD2 production in mouse ear
Experiment: Inhibitory effect on PGD2 production in mouse ear caused by allergic reaction
Type: in vivo
Conditions: 3 mg/kg orally, 1 hour before inducing antigen-antibody reaction; BALB/c mice
Procedure: A test of PGD2 production in the mouse ear caused by allergic reaction was conducted according to the evaluation method of passive cutaneous anaphylaxis in the mouse ear by Inagaki et al. (Int.Arch.AllergyAppl. Immunol., 1988, 86 (3), 325-30) with some alteration. […]
One hour after the induction of antigen-antibody reaction, the mice were killed by cervical dislocation and the ears were cut off with scissors. […] The harvested pieces of ear tissue were immediately frozen in liquid nitrogen, and preserved at −80° C. until measurement of the quantity of PGD2.
The quantity of PGD2 was determined in the following manner. […]

Structure (SMILES) | inhibition of PGD2 production in mouse ear caused by allergic reaction [%]
Cc1cccc(-n2nc3ccc4nc(-c5ccco5)cc(C(=O)O)c4c3n2)c1 [Compound 102, 7-(furan-2-yl)-2-(3-methylphenyl)-2H-[1,2,3]triazolo[4,5-f]quinoline-9-carboxylic acid] | 84
